Assay results as given in publication PMC10041525, “New Dual Inhibitors of Bacterial Topoisomerases with Broad-Spectrum Antibacterial Activity and In Vivo Efficacy against Vancomycin-Intermediate Staphylococcus aureus” (Journal of Medicinal Chemistry, 2023).
In brackets after ≈: the same amount, converted by molar mass. Where two headings read alike, the source gives them in different places.

Columns and labels:
[1] = system: Haemophilus influenzae (n = 14); assay: MIC broth microdilution at IHMA Europe; assay type: cell-based, H. influenzae; conditions: for MIC: Haemophilus influenzae, read-out: MIC
E. faecium (n = 13) = assay: MIC broth microdilution at IHMA Europe; assay type: cell-based; conditions: for MIC: Enterococcus faecium, read-out: MIC
S. pneumoniae (n = 12) = assay: MIC broth microdilution at IHMA Europe; assay type: cell-based; conditions: for MIC: Streptococcus pneumoniae, read-out: MIC
E. coli ATCC 25922 = system: E. coli ATCC 25922; set-up: method as in earlier work; conditions: QC range for E. coli ATCC 25922, ref CLSI; cited from earlier work
H. influenzae ATCC 49247 = system: H. influenzae ATCC 49247; set-up: method as in earlier work; conditions: QC range for H. influenzae ATCC 49247, ref CLSI; cited from earlier work
S. pneumoniae ATCC 49619 = system: S. pneumoniae ATCC 49619; set-up: method as in earlier work; conditions: QC range for S. pneumoniae ATCC 49619, ref CLSI; cited from earlier work

- MIC ([1]; H. influenzae IHMA N° 1227715): 16 µg/mL (≈ 45.8 µM)
- MIC ([1]; H. influenzae IHMA N° 1241620): 4 µg/mL (≈ 11.4 µM)
- MIC ([1]; H. influenzae IHMA N° 1244149): 16 µg/mL (≈ 45.8 µM)
- MIC ([1]; H. influenzae IHMA N° 1249803): 2 µg/mL (≈ 5.72 µM)
- MIC ([1]; H. influenzae IHMA N° 1254355): 2 µg/mL (≈ 5.72 µM)
- MIC ([1]; H. influenzae IHMA N° 1258580): 16 µg/mL (≈ 45.8 µM)
- MIC ([1]; H. influenzae IHMA N° 1262734): 8 µg/mL (≈ 22.9 µM)
- MIC ([1]; H. influenzae IHMA N° 1272723): 16 µg/mL (≈ 45.8 µM)
- MIC ([1]; H. influenzae IHMA N° 1286846): 8 µg/mL (≈ 22.9 µM)
- MIC ([1]; H. influenzae IHMA N° 1337530): 32 µg/mL (≈ 91.6 µM)
- MIC ([1]; H. influenzae IHMA N° 1440085): 8 µg/mL (≈ 22.9 µM)
- MIC ([1]; H. influenzae IHMA N° 1479509): 8 µg/mL (≈ 22.9 µM)
- MIC ([1]; H. influenzae IHMA N° 1952952): 4 µg/mL (≈ 11.4 µM)
- MIC ([1]; H. influenzae IHMA N° 2047461): 32 µg/mL (≈ 91.6 µM)
- Cumulative % at MIC ([1]; MIC 2 µg/mL): 14.3%
- No. of isolates at MIC ([1]; MIC 2 µg/mL): 2
- Cumulative % at MIC ([1]; MIC […] µg/mL): 85.7%
- No. of isolates at MIC ([1]; MIC […] µg/mL): 4
- Cumulative % at MIC ([1]; MIC 32 µg/mL): 100.0%
- No. of isolates at MIC ([1]; MIC 32 µg/mL): 2
- MIC (E. faecium (n = 13); E. faecium IHMA N° 1764866): > 32 µg/mL
- MIC (E. faecium (n = 13); E. faecium IHMA N° 1765436): > 32 µg/mL
- MIC (E. faecium (n = 13); E. faecium IHMA N° 1765746): > 32 µg/mL
- MIC (E. faecium (n = 13); E. faecium IHMA N° 1893573): > 32 µg/mL
- MIC (E. faecium (n = 13); E. faecium IHMA N° 1893846): > 32 µg/mL
- MIC (E. faecium (n = 13); E. faecium IHMA N° 1893942): > 32 µg/mL
- MIC (E. faecium (n = 13); E. faecium IHMA N° 1894055): > 32 µg/mL
- MIC (E. faecium (n = 13); E. faecium IHMA N° 1897027): > 32 µg/mL
- MIC (E. faecium (n = 13); E. faecium IHMA N° 1897101): > 32 µg/mL
- MIC (E. faecium (n = 13); E. faecium IHMA N° 1904592): > 32 µg/mL
- MIC (E. faecium (n = 13); E. faecium IHMA N° 2075051): > 32 µg/mL
- MIC (E. faecium (n = 13); E. faecium IHMA N° 2077718): > 32 µg/mL
- MIC (E. faecium (n = 13); E. faecium IHMA N° 2083787): > 32 µg/mL
- Cumulative % at MIC (E. faecium (n = 13); MIC >32 µg/mL): 100.0%
- No. of isolates at MIC (E. faecium (n = 13); MIC >32 µg/mL): 13
- Cumulative % at MIC (S. pneumoniae (n = 12); MIC 0.5 µg/mL): 25.0%
- No. of isolates at MIC (S. pneumoniae (n = 12); MIC 0.5 µg/mL): 2
- Cumulative % at MIC (S. pneumoniae (n = 12); MIC 1 µg/mL): 33.3%
- No. of isolates at MIC (S. pneumoniae (n = 12); MIC 1 µg/mL): 1
- Cumulative % at MIC (S. pneumoniae (n = 12); MIC 2 µg/mL): 66.7%
- No. of isolates at MIC (S. pneumoniae (n = 12); MIC 2 µg/mL): 4
- No. of isolates at MIC (S. pneumoniae (n = 12); MIC […] µg/mL): 2
- Cumulative % at MIC (S. pneumoniae (n = 12); MIC ≤0.03 µg/mL): 8.3%
- No. of isolates at MIC (S. pneumoniae (n = 12); MIC ≤0.03 µg/mL): 1
- MIC (S. pneumoniae (n = 12); S. pneumoniae IHMA N° 1775387): 4 µg/mL (≈ 11.4 µM)
- MIC (S. pneumoniae (n = 12); S. pneumoniae IHMA N° 1776057): 2 µg/mL (≈ 5.72 µM)
- MIC (S. pneumoniae (n = 12); S. pneumoniae IHMA N° 1785617): 8 µg/mL (≈ 22.9 µM)
- MIC (S. pneumoniae (n = 12); S. pneumoniae IHMA N° 1800765): 0.5 µg/mL (≈ 1.43 µM)
- MIC (S. pneumoniae (n = 12); S. pneumoniae IHMA N° 1811259): 2 µg/mL (≈ 5.72 µM)
- MIC (S. pneumoniae (n = 12); S. pneumoniae IHMA N° 1831562): ≤ 0.03 µg/mL
- MIC (S. pneumoniae (n = 12); S. pneumoniae IHMA N° 1902609): 4 µg/mL (≈ 11.4 µM)
- MIC (S. pneumoniae (n = 12); S. pneumoniae IHMA N° 1979675): 2 µg/mL (≈ 5.72 µM)
- MIC (S. pneumoniae (n = 12); S. pneumoniae IHMA N° 1991963): 1 µg/mL (≈ 2.86 µM)
- MIC (S. pneumoniae (n = 12); S. pneumoniae IHMA N° 2057487): 2 µg/mL (≈ 5.72 µM)
- MIC (S. pneumoniae (n = 12); S. pneumoniae IHMA N° 2073087): 8 µg/mL (≈ 22.9 µM)
- MIC (S. pneumoniae (n = 12); S. pneumoniae IHMA N° 2117109): 0.5 µg/mL (≈ 1.43 µM)
Compound: CC1(C)S[C@@H]2[C@H](NC(=O)[C@H](N)c3ccccc3)C(=O)N2[C@H]1C(=O)O [Ampicillin, ampicillin]
- MIC, CLSI Range (E. coli ATCC 25922): 2 to 8 µg/mL
- MIC, CLSI Range (H. influenzae ATCC 49247): 2 to 8 µg/mL
- MIC, CLSI Range (S. pneumoniae ATCC 49619): 0,06 - 0,25 µg/mL
